According to patent publication US10829478B2, “5-[3-[piperazin-1-yl]-3-oxo-propyl]-imidazolidine-2,4-dione derivatives as ADAMTS 4 and 5 inhibitors for treating e.g. osteoarthritis” (Galapagos NV, priority 2016, dated 2020):

Tests used:
[1] = biological target: T1, human ADAMTS4 (Homo sapiens (Human), UniProt O75173); assay: hADAMTS-4 TBIS-1 cleavage assay, Protocol 1; assay type: biochemical; details: 60 min at room temperature, read-out: ADAMTS4 potency IC50
Protocol: (§2) The reaction is initiated by adding to the assay plate TBIS-1 (10 μL, 4.5 μM, Anaspec) in the same buffer.
Finally, the fluorescence is read on the Envision (Perkin Elmer) after an incubation of 60 min at room temperature (Excitation 485 nm, emission 535).

[2] = biological target: human TACE (Homo sapiens (Human), UniProt P78536); assay: biochemical
Protocol: Finally, the fluorescence is read on the Envision (Perkin Elmer) after an incubation of 75 min at room temperature (Excitation 485 nm, Emission 530).

[3] = biological target: T2, human ADAMTS-5 (Homo sapiens (Human), UniProt Q9UNA0); assay: hADAMTS-5 TBIS-1 cleavage assay, Protocol 2; assay type: biochemical; details: 45 min at 37° C., read-out: ADAMTS5 potency IC50
[4] = biological target: human ADAMTS6 (Homo sapiens (Human), UniProt Q9UKP5); assay: hADAMTS-6 fluorescent based protease assay (520 MMP FRET substrate XII); assay type: biochemical; details: 37° C. for 2 h; read-out: hADAMTS-6 potency IC50
In short: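 ADAMTS6 (0.73 nM final) in 25 mM Tris pH 8.0, 0.05% CHAPS, 2.5 mM CaCl2 with compound dilution series (top 20 μM, 1/5 steps). Reaction started with 520 MMP FRET Substrate XII, incubated 2 h at 37 °C. Substrate cleavage read by fluorescence ex485/em530; IC50 determined.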

[5] = biological target: T1, human ADAMTS4; assay: hADAMTS-4 TBIS-1 cleavage assay, Protocol 2; assay type: biochemical
[6] = biological target: T3, human MMP13 (Homo sapiens (Human), UniProt P45452); assay: hMMP13 assay, Protocol 1 (390 MMP FRET Substrate I, Chemicon enzyme); assay type: biochemical; details: Protocol 1, human MMP13 (Chemicon), read-out: hMMP-13 potency IC50
Protocol: (§1) Human MMP13 is preactivated by incubated the enzyme in the same buffer complemented with 1 mM freshly prepared p-Aminophenylmercuric acetate (AMPA) for 1 h at 37° C.

[7] = biological target: T2, human ADAMTS-5; assay: hADAMTS-5 TBIS-1 cleavage assay, Protocol 3; assay type: biochemical; details: 90 min at 37° C., read-out: hADAMTS-5 potency IC50
Protocol: as §2
Finally, the fluorescence is read on the Envision (Perkin Elmer) after an incubation of 90 min at 37° C. (Excitation 485 nm, emission 530).

[8] = biological target: rnADAMTS-5 (1-564-6H) (Rattus norvegicus (Rat), UniProt Q6TY19); assay: Rat ADAMTS-5 TBIS-1 cleavage assay; assay type: biochemical; details: 120 min at 37° C.; read-out: Rat ADAMTS-5 potency IC50
[9] = biological target: T3, human MMP13; assay: hMMP13 assay, Protocol 2 (390 MMP FRET Substrate I, Enzo enzyme); assay type: biochemical; details: Protocol 2, human MMP13 (Enzo Life Sciences), read-out: hMMP-13 potency IC50
Protocol: as §1

[10] = biological target: human MMP14 (Homo sapiens (Human), UniProt P50281); assay: hMMP14 assay (390 MMP FRET Substrate I); assay type: biochemical; details: human MMP14 (Biomol), read-out: hMMP-14 potency IC50
Protocol: The basis for the assay is the cleavage of the substrate 390 MMP FRET Substrate I (Anaspec Cat #AS-27076) by human MMP14 (Biomol, Cat #SE-259).
The reaction is initiated by adding to the assay plate 390 MMP FRET Substrate I (10 μL, 2.5 μM) in the same buffer.
Finally, the fluorescence is read on the Envision (Perkin Elmer) after an incubation of 60 min at room temperature (Excitation 485 nm, Emission 530).

[11] = Protocol 2, 180 min at 37° C., read-out: ADAMTS4 potency IC50

human TACE, sequence (P78536 215-671): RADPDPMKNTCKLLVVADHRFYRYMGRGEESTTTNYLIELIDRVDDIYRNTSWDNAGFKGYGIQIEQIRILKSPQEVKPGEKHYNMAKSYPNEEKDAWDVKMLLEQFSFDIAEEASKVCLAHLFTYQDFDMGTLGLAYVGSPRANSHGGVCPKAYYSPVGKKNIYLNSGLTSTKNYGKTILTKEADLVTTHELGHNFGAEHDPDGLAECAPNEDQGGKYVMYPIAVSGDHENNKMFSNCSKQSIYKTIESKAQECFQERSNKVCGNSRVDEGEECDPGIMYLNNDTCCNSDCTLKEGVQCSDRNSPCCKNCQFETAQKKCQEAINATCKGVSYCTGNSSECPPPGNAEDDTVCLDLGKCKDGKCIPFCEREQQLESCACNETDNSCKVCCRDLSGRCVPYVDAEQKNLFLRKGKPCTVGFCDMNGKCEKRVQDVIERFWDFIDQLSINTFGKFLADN
rnADAMTS-5 (1-564-6H), sequence (Q6TY19 entry or part of it): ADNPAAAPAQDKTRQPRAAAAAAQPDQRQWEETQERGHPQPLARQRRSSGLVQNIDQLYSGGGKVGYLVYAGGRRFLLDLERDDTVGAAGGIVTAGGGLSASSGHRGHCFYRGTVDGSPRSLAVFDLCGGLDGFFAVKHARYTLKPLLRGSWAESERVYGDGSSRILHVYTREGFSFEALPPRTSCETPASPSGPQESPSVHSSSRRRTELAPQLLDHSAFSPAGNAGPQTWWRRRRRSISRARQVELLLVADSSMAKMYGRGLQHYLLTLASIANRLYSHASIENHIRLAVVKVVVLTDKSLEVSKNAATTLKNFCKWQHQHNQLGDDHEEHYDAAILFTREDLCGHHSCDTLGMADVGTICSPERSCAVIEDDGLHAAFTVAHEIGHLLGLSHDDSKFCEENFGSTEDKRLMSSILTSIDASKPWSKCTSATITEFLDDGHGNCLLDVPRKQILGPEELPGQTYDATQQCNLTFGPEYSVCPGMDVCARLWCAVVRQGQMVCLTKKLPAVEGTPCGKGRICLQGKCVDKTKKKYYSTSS
human ADAMTS6, sequence (Q9UKP5 other isoform, or with tags, fused parts or gaps): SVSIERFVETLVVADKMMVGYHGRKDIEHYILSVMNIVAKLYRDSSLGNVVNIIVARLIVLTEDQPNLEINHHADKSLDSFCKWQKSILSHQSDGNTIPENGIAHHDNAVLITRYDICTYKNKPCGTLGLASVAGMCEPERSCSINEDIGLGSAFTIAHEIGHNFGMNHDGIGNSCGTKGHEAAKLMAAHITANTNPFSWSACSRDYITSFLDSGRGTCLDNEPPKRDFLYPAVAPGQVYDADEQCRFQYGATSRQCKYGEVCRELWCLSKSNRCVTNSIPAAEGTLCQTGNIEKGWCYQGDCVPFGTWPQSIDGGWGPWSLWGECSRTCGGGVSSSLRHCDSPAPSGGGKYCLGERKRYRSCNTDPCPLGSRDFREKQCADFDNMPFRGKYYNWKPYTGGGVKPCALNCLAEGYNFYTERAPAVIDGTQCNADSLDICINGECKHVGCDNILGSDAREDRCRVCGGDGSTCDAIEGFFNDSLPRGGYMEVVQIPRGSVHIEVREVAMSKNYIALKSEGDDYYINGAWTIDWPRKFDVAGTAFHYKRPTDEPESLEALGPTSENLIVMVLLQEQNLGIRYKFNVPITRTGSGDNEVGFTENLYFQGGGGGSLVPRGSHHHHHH
T1 sequence (O75173 213-837): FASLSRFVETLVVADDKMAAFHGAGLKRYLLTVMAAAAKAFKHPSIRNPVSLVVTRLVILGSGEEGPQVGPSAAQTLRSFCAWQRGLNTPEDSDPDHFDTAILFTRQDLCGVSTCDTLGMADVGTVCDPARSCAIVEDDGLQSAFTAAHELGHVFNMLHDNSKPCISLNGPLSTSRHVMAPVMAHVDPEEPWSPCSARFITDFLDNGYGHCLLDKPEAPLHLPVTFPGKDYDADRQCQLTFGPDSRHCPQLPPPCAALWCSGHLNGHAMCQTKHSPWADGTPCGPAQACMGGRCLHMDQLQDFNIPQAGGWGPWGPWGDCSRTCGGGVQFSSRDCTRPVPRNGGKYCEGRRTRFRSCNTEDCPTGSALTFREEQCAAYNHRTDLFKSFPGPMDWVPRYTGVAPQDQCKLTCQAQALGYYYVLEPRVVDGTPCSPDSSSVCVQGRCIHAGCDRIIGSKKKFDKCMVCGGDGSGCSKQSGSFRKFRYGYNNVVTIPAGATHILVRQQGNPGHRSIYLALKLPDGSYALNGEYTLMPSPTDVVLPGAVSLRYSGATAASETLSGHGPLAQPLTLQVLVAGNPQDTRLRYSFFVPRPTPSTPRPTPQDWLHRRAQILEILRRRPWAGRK
T2 sequence (Q9UNA0 262-930): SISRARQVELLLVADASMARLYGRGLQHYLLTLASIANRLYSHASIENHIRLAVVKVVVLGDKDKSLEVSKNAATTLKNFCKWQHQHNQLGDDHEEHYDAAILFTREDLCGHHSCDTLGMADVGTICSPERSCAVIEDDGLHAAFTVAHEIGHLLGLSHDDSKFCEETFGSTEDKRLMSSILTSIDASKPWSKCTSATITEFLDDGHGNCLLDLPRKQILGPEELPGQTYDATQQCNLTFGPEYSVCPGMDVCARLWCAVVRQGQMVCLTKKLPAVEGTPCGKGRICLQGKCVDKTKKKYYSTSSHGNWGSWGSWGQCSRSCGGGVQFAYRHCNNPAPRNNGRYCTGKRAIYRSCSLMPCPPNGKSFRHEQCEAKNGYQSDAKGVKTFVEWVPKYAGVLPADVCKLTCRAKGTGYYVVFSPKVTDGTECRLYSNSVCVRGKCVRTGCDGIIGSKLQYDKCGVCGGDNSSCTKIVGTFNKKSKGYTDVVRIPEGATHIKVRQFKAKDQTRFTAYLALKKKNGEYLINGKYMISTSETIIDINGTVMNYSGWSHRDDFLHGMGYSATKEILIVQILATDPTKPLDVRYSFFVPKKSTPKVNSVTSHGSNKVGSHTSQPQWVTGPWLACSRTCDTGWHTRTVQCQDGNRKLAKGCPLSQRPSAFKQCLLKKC

| IC50 [1] | IC50 [2] | IC50 [3] | IC50 [4] | IC50 [5, 11] | IC50 [6] | IC50 [7] | IC50 [8] | SMILES | IC50 [5] | IC50 [9] | IC50 [10] |
| --- | --- | --- | --- | --- | --- | --- | --- | --- | --- | --- | --- |
| > 100 nM | > 100 nM | > 100 nM | > 100 nM |  |  |  |  | COc1cccc(N2CCN(C(=O)CCC3(C)NC(=O)NC3=O)CC2)c1 (centres unmarked) [Cpd 1, 5-[3-[4-(3-methoxyphenyl)piperazin-1-yl]-3-oxo-propyl]-5-methyl-imidazolidine-2,4-dione] |  |  |  |
|  | > 100 nM | > 100 nM | > 100 nM | > 100 nM | > 100 nM |  |  | CC1(CCC(=O)N2CCN(c3ccc(OC(F)(F)F)cc3)CC2)NC(=O)NC1=O (centres unmarked) [Cpd 3, 5-methyl-5-[3-oxo-3-[4-[4-(trifluoromethoxy)phenyl]piperazin-1-yl]propyl]imidazolidine-2,4-dione] |  |  |  |
|  |  | > 100 nM | > 100 nM |  |  | > 100 nM |  | CC1(CCC(=O)N2CCN(c3ccccc3OC(F)(F)F)CC2)NC(=O)NC1=O (centres unmarked) [Cpd 4, 5-methyl-5-[3-oxo-3-[4-[2-(trifluoromethoxy)phenyl]piperazin-1-yl]propyl]imidazolidine-2,4-dione] |  |  |  |
|  |  | > 100 nM | > 100 nM |  |  |  |  | COc1ccc(N2CCN(C(=O)CCC3(C)NC(=O)NC3=O)CC2)cc1 (centres unmarked) [Cpd 5, 5-[3-[4-(4-methoxyphenyl)piperazin-1-yl]-3-oxo-propyl]-5-methyl-imidazolidine-2,4-dione] |  |  |  |
|  | > 100 nM | > 100 nM | > 100 nM |  | > 100 nM |  | > 100 nM | COc1cccc(N2CCN(C(=O)CCC3(c4cccnc4)NC(=O)NC3=O)CC2)c1 (centres unmarked) [Cpd 6, 5-[3-[4-(3-methoxyphenyl)piperazin-1-yl]-3-oxo-propyl]-5-(3-pyridyl)imidazolidine-2,4-dione] |  |  |  |
|  |  | > 100 nM | > 100 nM |  |  | > 100 nM |  | COc1ccccc1N1CCN(C(=O)CCC2(C)NC(=O)NC2=O)CC1 (centres unmarked) [Cpd 7, 5-[3-[4-(2-methoxyphenyl)piperazin-1-yl]-3-oxo-propyl]-5-methyl-imidazolidine-2,4-dione] |  |  |  |
|  | > 100 nM | > 100 nM | 50 to 100 nM |  | > 100 nM | > 100 nM | > 100 nM | COc1cc(N2CCN(C(=O)CCC3(C)NC(=O)NC3=O)CC2)ccc1F (centres unmarked) [Cpd 9, 5-[3-[4-(4-fluoro-3-methoxy-phenyl)piperazin-1-yl]-3-oxo-propyl]-5-methyl-imidazolidine-2,4-dione] |  |  |  |
|  | > 100 nM | > 100 nM | 25 to 50 nM | > 100 nM | > 100 nM | > 100 nM | > 100 nM | COc1cc(N2CCN(C(=O)CCC3(C)NC(=O)NC3=O)CC2)ccc1Cl (centres unmarked) [Cpd 10, 5-[3-[4-(4-chloro-3-methoxy-phenyl)piperazin-1-yl]-3-oxo-propyl]-5-methyl-imidazolidine-2,4-dione] |  |  |  |
|  | > 100 nM | > 100 nM | > 100 nM | > 100 nM | > 100 nM |  | > 100 nM | COc1cc(OC)cc(N2CCN(C(=O)CCC3(C)NC(=O)NC3=O)CC2)c1 (centres unmarked) [Cpd 11, 5-[3-[4-(3,5-dimethoxyphenyl)piperazin-1-yl]-3-oxo-propyl]-5-methyl-imidazolidine-2,4-dione] |  |  |  |
|  | > 100 nM | > 100 nM | > 100 nM |  | > 100 nM |  | > 100 nM | COc1cc(F)cc(N2CCN(C(=O)CCC3(C)NC(=O)NC3=O)CC2)c1 (centres unmarked) [Cpd 12, 5-[3-[4-(3-fluoro-5-methoxy-phenyl)piperazin-1-yl]-3-oxo-propyl]-5-methyl-imidazolidine-2,4-dione] |  |  |  |
|  | > 100 nM | > 100 nM | 25 to 50 nM |  | > 100 nM |  | > 100 nM | COc1cc(Cl)cc(N2CCN(C(=O)CCC3(C)NC(=O)NC3=O)CC2)c1 (centres unmarked) [Cpd 13, 5-[3-[4-(3-chloro-5-methoxy-phenyl)piperazin-1-yl]-3-oxo-propyl]-5-methyl-imidazolidine-2,4-dione] |  |  |  |
|  | > 100 nM | > 100 nM | 25 to 50 nM | > 100 nM | > 100 nM | > 100 nM | > 100 nM | COc1cc(N2CCN(C(=O)CCC3(C)NC(=O)NC3=O)CC2)cc(F)c1F (centres unmarked) [Cpd 14, 5-[3-[4-(3,4-difluoro-5-methoxy-phenyl)piperazin-1-yl]-3-oxo-propyl]-5-methyl-imidazolidine-2,4-dione] |  |  |  |
|  |  | > 100 nM | > 100 nM |  |  |  |  | CCOc1cccc(N2CCN(C(=O)CCC3(C)NC(=O)NC3=O)CC2)c1 (centres unmarked) [Cpd 16, 5-[3-[4-(3-ethoxyphenyl)piperazin-1l-yl]-3-oxo-propyl]-5-methyl-imidazolidine-2,4-dione] |  |  |  |
|  | > 100 nM | > 100 nM | > 100 nM | > 100 nM | > 100 nM | > 100 nM | > 100 nM | COc1cc(N2CCN(C(=O)CCC3(C4CC4)NC(=O)NC3=O)CC2)ccc1F (centres unmarked) [Cpd 17, 5-cyclopropyl-5-[3-[4-(4-fluoro-3-methoxy-phenyl)piperazin-1-yl]-3-oxo-propyl]imidazolidine-2,4-dione] |  |  |  |
|  | > 100 nM | 50 to 100 nM | 0.001 to 25 nM | > 100 nM | > 100 nM | 50 to 100 nM | > 100 nM | COc1cc(N2CCN(C(=O)CCC3(C4CC4)NC(=O)NC3=O)CC2)cc(F)c1F (centres unmarked) [Cpd 18, 5-cyclopropyl-5-[3-[4-(3,4-difluoro-5-methoxy-phenyl)piperazin-1-yl]-3-oxo-propyl]imidazolidine-2,4-dione] |  | > 100 nM | > 100 nM |
|  | > 100 nM |  | 0.001 to 25 nM | > 100 nM | > 100 nM | 50 to 100 nM | > 100 nM | COc1cc(N2CCN(C(=O)CCC3(C)NC(=O)NC3=O)C[C@@H]2C)cc(Cl)c1F (some centres unmarked) [Cpd 53, 5-[3-[(3 S)-4-(3-chloro-4-fluoro-5-methoxy-phenyl)-3-methyl-piperazin-1l-yl]-3-oxo-propyl]-5-methyl-imidazolidine-2,4-dione] |  | > 100 nM | > 100 nM |
|  | > 100 nM |  | 0.001 to 25 nM | > 100 nM |  | > 100 nM | > 100 nM | C[C@H]1CN(C(=O)CC[C@@]2(C)NC(=O)NC2=O)CCN1c1ccc(Cl)c(OC(F)(F)F)c1 [Cpd 86, (5R)-5-[3-[(3S)-4-[4-chloro-3-(trifluoromethoxy)phenyl]-3-methyl-piperazin-1-yl]-3-oxo-propyl]-5-methyl-imidazolidine-2,4-dione] |  | > 100 nM | > 100 nM |

| SMILES | IC50 [1] | IC50 [2] | IC50 [3] | IC50 [4] | IC50 [5, 11] | IC50 [6] | IC50 [7] | IC50 [8] | IC50 [5] | IC50 [9] | IC50 [10] |
| --- | --- | --- | --- | --- | --- | --- | --- | --- | --- | --- | --- |
| COc1cccc(N2CCN(C(=O)CCC3(c4ccccn4)NC(=O)NC3=O)CC2)c1 (centres unmarked) [Cpd 8, 5-[3-[4-(3-methoxyphenyl)piperazin-1-yl]-3-oxo-propyl]-5-(2-pyridyl)imidazolidine-2,4-dione] |  | > 100 nM | > 100 nM | > 100 nM |  | > 100 nM |  | > 100 nM | 50 to 100 nM |  |  |
| COc1cc(F)cc(N2CCN(C(=O)CCC3(C4CC4)NC(=O)NC3=O)CC2)c1 (centres unmarked) [Cpd 15, 5-cyclopropyl-5-[3-[4-(3-fluoro-5-methoxy-phenyl)piperazin-1-yl]-3-oxo-propyl]imidazolidine-2,4-dione] |  | > 100 nM | 50 to 100 nM | > 100 nM |  | > 100 nM | 50 to 100 nM | 50 to 100 nM | 50 to 100 nM |  |  |
| COc1cc(N2CCN(C(=O)[C@@H](C)C[C@@]3(c4ccccn4)NC(=O)NC3=O)CC2)cc(F)c1F [Cpd 54, (5 S)-5-[(2S)-3-[4-(3,4-difluoro-5-methoxy-phenyl)piperazin-1-yl]-2-methyl-3-oxo-propyl]-5-(2-pyridyl)imidazolidine-2,4-dione] |  | > 100 nM |  | 0.001 to 25 nM |  |  | 0.001 to 25 nM | 0.001 to 25 nM | 25 to 50 nM | > 100 nM | > 100 nM |
| COc1cc(N2CCN(C(=O)[C@@H](CO)C[C@@]3(C)NC(=O)NC3=O)CC2)cc(F)c1F [Cpd 56, (5R)-5-[(2R)-3-[4-(3,4-difluoro-5-methoxy-phenyl)piperazin-1-yl]-2-(hydroxymethyl)-3-oxo-propyl]-5-methyl-imidazolidine-2,4-dione] |  | > 100 nM |  | 0.001 to 25 nM |  |  | 25 to 50 nM | 25 to 50 nM | 25 to 50 nM | > 100 nM | > 100 nM |
| COC[C@]1(C[C@H](C)C(=O)N2CCN(c3cc(F)c(F)c(OC)c3)CC2)NC(=O)NC1=O [Cpd 59, (5 S)-5-[(2S)-3-[4-(3,4-difluoro-5-methoxy-phenyl)piperazin-1-yl]-2-methyl-3-oxo-propyl]-5-(methoxymethyl)imidazolidine-2,4-dione] |  | > 100 nM |  | 0.001 to 25 nM |  |  | 0.001 to 25 nM | 0.001 to 25 nM | 25 to 50 nM | > 100 nM | > 100 nM |
